The values that follow come from paper PMC3004048 (Biochemistry, 2009).

SMILES strings stand for the structures. Where a name gives a salt, the structure may show the parent alone.

In the first assay the target is T1, Lot6p (Saccharomyces cerevisiae, UniProt Q07923).
T1 sequence (Q07923 1-191): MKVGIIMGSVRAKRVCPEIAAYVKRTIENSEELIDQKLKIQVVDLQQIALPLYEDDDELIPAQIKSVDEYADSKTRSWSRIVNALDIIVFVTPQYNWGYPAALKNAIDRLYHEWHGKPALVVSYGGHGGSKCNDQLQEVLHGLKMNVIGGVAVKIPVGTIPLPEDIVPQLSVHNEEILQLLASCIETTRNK
The experiment in a line: stopped-flow oxidation of reduced enzyme at […] nm. In kind it is biochemical.
As for `CC1=CC(=O)c2ccccc2C1=O` [Menadione], the “k2” value was 677000 M⁻¹ s⁻¹.

Take `O=C1C=CC(=O)C=C1` [1,4-Benzoquinone]: the “k2” value was determined as 1.03e+07 M⁻¹ s⁻¹.

With `COC1=C(OC)C(=O)C(C)=CC1=O` [Coenzyme Q0], the “k2” value was found to be 6.45e+06 M⁻¹ s⁻¹.

`O=C1c2ccccc2C(=O)c2c1cccc2S(=O)(=O)O` [Na-anthraquinone, α-sulfonate]: the “k2” value was 1810 M⁻¹ s⁻¹.

On to `O=C1C=C(O)C(=O)c2ccccc21` [2-Hydroxy-1,4-naphthoquinone], for which the “k2” value is 7580 M⁻¹ s⁻¹.

As for `O=C1C=C(S(=O)(=O)O)c2ccccc2C1=O` [1,2-Napthoquinone-4-sulfonic acid, Na salt], the “k2” value amounted to 142000 M⁻¹ s⁻¹.

The next assay concerns the target T1, Lot6p.
Assay: not given
In kind it is biochemical.
The Kd is the concentration at which binding is half-saturated. High values mean a looser complex, low ones a tighter complex. Turning to `NC(=O)C1=CN([C@@H]2O[C@H](COP(=O)(O)OP(=O)(O)OC[C@H]3O[C@@H](n4cnc5c(N)ncnc54)[C@H](O)[C@@H]3O)[C@@H](O)[C@H]2O)C=CC1` [NADH], the dissociation constant Kd came out at 9.6 ± 2.4 mM.

`NC(=O)C1=CN([C@@H]2O[C@H](COP(=O)(O)OP(=O)(O)OC[C@H]3O[C@@H](n4cnc5c(N)ncnc54)[C@H](OP(=O)(O)O)[C@@H]3O)[C@@H](O)[C@H]2O)C=CC1` [NADPH] came in with an equilibrium dissociation constant (Kd) of 12.5 ± 1.1 mM.
